# Like-named read-outs stand apart in the source and are kept apart here. Where a SMILES comes first, the peptide text is derived from it.
# How the values were obtained:
# [1] = target: T1, HER2:HER3 dimerization in transfected U2OS cells (Homo sapiens, UniProt P04626); test: Enzyme fragment complementation (PathHunter) assay; assay type: cell-based; conditions: for Inhibition of HER2:HER3 dimerization (PathHunter): in the presence of 0.3 µM NRG1
# T1 construct: host or cells: U2OS
# Procedure: A Pathhunter assay kit was obtained from DiscoverX, and enzyme fragment complementation assay was carried out. U2OS cells transfected with HER3:HER2 were used for the assay. After cells were attached to the wells, they were incubated with compound 18 and controls at different concentration in the presence of neuregulin-1 (NRG-1) at 0.3 µM concentration. After 24 h of incubation, reagents were added, and luminescence was measured and compared with a control without any compound. A plot of luminescence versus concentration was obtained to measure the dimerization of HER3:HER2 and its inhibition by compound 18.
# [2] = test system: SKBR-3 cells; set-up: method as in PMID 21887403, PMID 20919746, PMID 25346057, PMID 24222531, PMID 19703026; conditions: Table 2, compounds marked * reported earlier; read-out: Antiproliferative activity (IC50 µM) SKBR-3 cells; cited from earlier work
# [3] = test system: MCF-7 cells; test: Antiproliferative activity (CellTiter-Glo); assay type: cell-based; conditions: breast cancer cells that do not overexpress HER2, 72 h
# Source text: Erlotinib was from Sigma (Sigma-Aldrich Chemie GmbH).
# [4] = target: T2, HER2 ECD (domains I to IV) (Homo sapiens, UniProt P04626); test: Surface plasmon resonance analysis; assay type: binding; conditions: protein immobilized on CM5 chip, substance as analyte
# T2 construct: Extracellular domains of proteins HER2, EGFR, HER3, and HER4 purchased from Leinco Technologies; purchased Leinco Technologies (St. Louis, MO)
# Procedure: Surface plasmon resonance analysis was performed using GE X100. Extracellular domains of proteins HER2, EGFR, HER3, and HER4 purchased from Leinco Technologies (St. Louis, MO). […] Compound 18 and controls were used as analytes. Compound 18 at different concentrations (0 to 200 µM) was passed through an SPR chip, and binding kinetics were analyzed for each of the EGFR bindings. A blank subtracted sensorgram for compound 18 was represented.
# [5] = test system: BT-474 cells; conditions: read-out: IC50 BT-474 (+); HER2-overexpressing breast cancer cells, 72 h
# Procedure: (§1) Cellular assays were performed using BT-474, SKBR-3, Calu-3, MCF-7, and MCF-10A cells (ATCC). Antiproliferative activity was measured by CellTiter-Glo®, [49] a luminescence-based cell viability assay. In a 96-well plate, 1 × 10^4 cells/well were seeded and incubated overnight at 37°C and 5% CO2. Stock solutions of peptidomimetics were prepared by dissolving 1.5 mg/mL of compounds in DMSO. Stock solution of the compounds were diluted using the serum-free medium to prepare solutions of different concentrations of compounds. Compounds in the medium were added to the wells in triplicate and incubated for 72 h. As controls, cells treated with 1% sodium dodecyl sulfate and 1% dimethyl sulfoxide were used. At the end of the experiment, CellTiter-Glo® reagent was added, and luminescence was measured by a plate reader. A dose response curve was generated using luminescence vs concentration of compounds and IC50 values were obtained using Prism® (GraphPad Software, La Jolla, CA). Experiments were repeated at least three times to obtain standard deviation values.
# [6] = test system: SKBR-3 cells
# Procedure: as §1
# [7] = test system: SKOV-3 cells; conditions: read-out: IC50 SKOV-3(+); HER2-overexpressing ovarian cancer cells, 72 h
# Procedure: as §1
# [8] = test system: Calu-3 cells; conditions: read-out: IC50 Calu-3 (+); HER2-overexpressing lung cancer cells, 72 h
# Procedure: as §1
# [9] = test system: BT-474 breast tumors; test: Xenograft model of breast cancer; assay type: in vivo, athymic nude mice; conditions: BT-474 xenograft
# Procedure: All animals were handled according to the approved protocol from IACUC at the University of Louisiana at Monroe. Athymic nude mice (Foxn1nu/Foxn1+, female, 4–5 weeks) were purchased from Harlan Laboratories (Indianapolis, IN) and maintained in the ULM School of Pharmacy vivarium. After acclimatization of animals to the local environment, estrogen (17β-estradiol) pellets (0.72 mg, 90-day release) were implanted subcutaneously in the mice, under anesthesia. Tumors were induced in mice as described previously. Orthotopic injection of about three-million BT-474 cells suspended in the serum-free RPMI-1640 medium was done at the second left mammary fat pad. Mice were observed every day for tumor formation, and the tumor diameter was measured with calipers, and the tumor volume was calculated. When a tumor diameter of 3 mm was achieved, mice were randomly assigned to four groups of six. These groups contain negative control (vehicle control), positive control (lapatinib), and two treatment groups (compound 9 and 18). The mice were treated for 19 days. Compound 18 was administered near the base of the tumor at a dose of 4 mg/kg twice a week. Control groups received intratumor saline injections twice a week, and lapatinib was administered at 10 mg/kg once a week by intraperitoneal injection. The marker to end the experiments was based on tumor doubling time rather than tumor volume. Since tumor doubling time was 4 times in 19 days, experiments were stopped on the 19th day. Tumor-bearing mice were sacrificed, and three tumors per group were harvested and maintained at –80°C and the remaining three tumors were fixed in paraffin blocks. Microsections (5 µm) of paraffin fixed tumors were stained with hemotoxylin and eosin (H&E) and observed for necrosis by a pathologist. All data are presented as the mean ± SE. Statistical differences were evaluated by Mann-Whitney U test as well as one-way ANOVA analysis of data from different groups, and the criterion for statistical significance was p < 0.05.
# [10] = target: T3, HER2:HER3 heterodimerization in tumor sections (Homo sapiens, UniProt P04626); test: PLA on xenograft tumor sections; assay type: in vivo, athymic nude mice
# T3 construct: from tissue; host or cells: BT-474 xenograft tumours grown in athymic nude mice
# Procedure: Western blot and PLA assay were carried out on tumor sections as described before. Immunoblot analysis was performed to evaluate the levels of total HER2 and phosphorylated HER2. Tumor sections were deparaffinized using xylene and rehydrated with decreasing concentrations of ethanol. Antigen retrieval on the microsections of the breast tumors was done in a steaming sodium citrate buffer (10 mM, 0.05% Tween-20, pH 6.0) for 5 min. The tumor sections were then used to analyze inhibition of HER2:HER3 dimerization using PLA.
# [11] = test system: SKBR-3 cells; test: cells; conditions: Homo sapiens, SK-BR-3, 72 h, read-out: IC50 SKBR-3(+)
# Procedure: as §1
# [12] = read-out: Antiproliferative activity (IC50 µM) SKBR-3 cells, Table 2, compound 18 and diastereoisomers
compound,measurement,setting,value
Ac-f(Anapa)r-NH2 [compound 21],Inhibition of HER2:HER3 dimerization (PathHunter),[1],shown to inhibit HER2:HER3 dimerization
same,IC50,[2],0.373 ± 0.15 µM
"H2N-K(3-amino-biphenyl propionic acid)F-OH [CP, reference compound]",IC50,[3],> 100000 nM
same,SPR binding to HER2 ECD,[4],no SPR response was observed
same,Inhibition of HER2:HER3 dimerization (PathHunter),[1],did not inhibit HER2:HER3 dimerization
same,IC50,[5],> 100000 nM
same,IC50,"[6]; read-out: IC50 SKBR-3(+), HER2-overexpressing breast cancer cells, 72 h",> 100 µM
same,IC50,[7],> 100000 nM
same,IC50,[8],> 100000 nM
"CS(=O)(=O)CCNCc1ccc(-c2ccc3ncnc(Nc4ccc(OCc5cccc(F)c5)c(Cl)c4)c3c2)o1 [Lapatinib, reference compound]",Tumor growth versus vehicle,"[9]; 19 days, 18 and 9 4 mg/kg twice a week intratumor, lapatinib 10 mg/kg once a week i.p.",significant delay in tumor growth
same,HER2:HER3 heterodimerization in tumor sections (PLA),[10],red fluorescence due to dimerization of HER2:HER3
same,IC50,[11],13 ± 3 nM
"N=C(N)NCCC[C@@H]1NC(=O)[C@H]2CCCN2C(=O)[C@@H]2CCCN2C(=O)[C@H](CCCNC(=N)N)NC(=O)C[C@H](c2cccc3ccccc23)NC(=O)[C@H](Cc2ccccc2)NC(=O)[C@H](CC(=O)O)NC(=O)[C@H](CC(=O)O)NC(=O)[C@H](Cc2ccccc2)NC(=O)C[C@@H](c2cccc3ccccc23)NC1=O [compound 18-1, Cyclo(1,10)P^1p^2R^3(S-Anapa)^4F^5D^6D^7F^8(R-Anapa)^9R^10] (HELM PEPTIDE1{P.[dP].R.[O=C(C[C@H](N[*:1])c1cccc2ccccc12)[*:2]].F.D.D.F.[O=C(C[C@@H](N[*:1])c1cccc2ccccc12)[*:2]].R}$PEPTIDE1,PEPTIDE1,1:R1-10:R2$$$V2.0)",IC50,[6]; [12],> 50 µM
"Cyclo(1,10)GPR- (Anapa)FDEFWR [compound 20]",IC50,[2],> 100 µM
NH2-Arg-Anapa-Phe-Asp-OH [compound 9],Difference in delay of tumor growth between compound 18 and compound 9,[9]; 4 mg/kg twice a week,not statistically significant
same,IC50,[2],0.445 ± 0.032 µM
"N=C(N)NCCC[C@@H]1NC(=O)[C@@H]2CCCN2C(=O)[C@H]2CCCN2C(=O)[C@H](CCCNC(=N)N)NC(=O)C[C@@H](c2cccc3ccccc23)NC(=O)[C@H](Cc2ccccc2)NC(=O)[C@H](CC(=O)O)NC(=O)[C@H](CC(=O)O)NC(=O)[C@H](Cc2ccccc2)NC(=O)C[C@@H](c2cccc3ccccc23)NC1=O [compound 18-4, Cyclo(1,10)p^1P^2R^3(S-Anapa)^4F^5D^6D^7F^8(S-Anapa)^9R^10] (HELM PEPTIDE1{[dP].P.R.[O=C(C[C@H](N[*:1])c1cccc2ccccc12)[*:2]].F.D.D.F.[O=C(C[C@H](N[*:1])c1cccc2ccccc12)[*:2]].R}$PEPTIDE1,PEPTIDE1,1:R1-10:R2$$$V2.0)",IC50,[6]; [12],0.456 ± 0.13 µM
"N=C(N)NCCC[C@@H]1NC(=O)[C@H]2CCCN2C(=O)[C@@H]2CCCN2C(=O)[C@H](CCCNC(=N)N)NC(=O)C[C@@H](c2cccc3ccccc23)NC(=O)[C@H](Cc2ccccc2)NC(=O)[C@H](CC(=O)O)NC(=O)[C@H](CC(=O)O)NC(=O)[C@H](Cc2ccccc2)NC(=O)C[C@H](c2cccc3ccccc23)NC1=O [compound 18-2, Cyclo(1,10)P^1p^2R^3(R-Anapa)^4F^5D^6D^7F^8(S-Anapa)^9R^10] (HELM PEPTIDE1{P.[dP].R.[O=C(C[C@@H](N[*:1])c1cccc2ccccc12)[*:2]].F.D.D.F.[O=C(C[C@H](N[*:1])c1cccc2ccccc12)[*:2]].R}$PEPTIDE1,PEPTIDE1,1:R1-10:R2$$$V2.0)",IC50,[6]; [12],0.743 ± 0.35 µM
neuregulin-1 [reference compound],Induction of HER2:HER3 dimerization (PathHunter),[1]; agonist dose-response,concentration dependence of induction of dimerization
"N=C(N)NCCC[C@@H]1NC(=O)[C@H]2CCCN2C(=O)[C@@H]2CCCN2C(=O)[C@H](CCCNC(=N)N)NC(=O)C[C@@H](c2cccc3ccccc23)NC(=O)[C@H](Cc2ccccc2)NC(=O)[C@H](CC(=O)O)NC(=O)[C@H](CC(=O)O)NC(=O)[C@H](Cc2ccccc2)NC(=O)C[C@@H](c2cccc3ccccc23)NC1=O [compound 18-3, Cyclo(1,10)P^1p^2R^3(S-Anapa)^4F^5D^6D^7F^8(S-Anapa)^9R^10] (HELM PEPTIDE1{P.[dP].R.[O=C(C[C@H](N[*:1])c1cccc2ccccc12)[*:2]].F.D.D.F.[O=C(C[C@H](N[*:1])c1cccc2ccccc12)[*:2]].R}$PEPTIDE1,PEPTIDE1,1:R1-10:R2$$$V2.0)",IC50,[6]; [12],41.1 ± 3.2 µM
"N=C(N)NCCC[C@@H]1NC(=O)[C@@H]2CCCN2C(=O)[C@H]2CCCN2C(=O)[C@H](CCCNC(=N)N)NC(=O)C[C@H](c2cccc3ccccc23)NC(=O)[C@H](Cc2ccccc2)NC(=O)[C@H](CC(=O)O)NC(=O)[C@H](CC(=O)O)NC(=O)[C@H](Cc2ccccc2)NC(=O)C[C@H](c2cccc3ccccc23)NC1=O [compound 18-5, Cyclo(1,10)p^1P^2R^3(R-Anapa)^4F^5D^6D^7F^8(R-Anapa)^9R^10] (HELM PEPTIDE1{[dP].P.R.[O=C(C[C@@H](N[*:1])c1cccc2ccccc12)[*:2]].F.D.D.F.[O=C(C[C@@H](N[*:1])c1cccc2ccccc12)[*:2]].R}$PEPTIDE1,PEPTIDE1,1:R1-10:R2$$$V2.0)",IC50,[6]; [12],12.8 ± 1.9 µM
NH2-Arg-Anapa-Phe-OH [compound 5],IC50,[2],0.396 ± 0.022 µM

# Source: article PMC5650337, “A peptidomimetic with a chiral switch is an inhibitor of epidermal growth factor receptor heterodimerization” (Oncotarget, 2017)
